{"source": "paper PMC7564282", "about": "“Juniperonic Acid Biosynthesis is Essential in Caenorhabditis elegans Lacking Δ6 Desaturase (fat-3) and Generates New ω-3 Endocannabinoids” (Cells, 2020)", "key": {"[1]": {"molecular_target": "T1, NPR-32 (Caenorhabditis elegans, UniProt O62403)", "T1 sequence (O62403 1-440)": "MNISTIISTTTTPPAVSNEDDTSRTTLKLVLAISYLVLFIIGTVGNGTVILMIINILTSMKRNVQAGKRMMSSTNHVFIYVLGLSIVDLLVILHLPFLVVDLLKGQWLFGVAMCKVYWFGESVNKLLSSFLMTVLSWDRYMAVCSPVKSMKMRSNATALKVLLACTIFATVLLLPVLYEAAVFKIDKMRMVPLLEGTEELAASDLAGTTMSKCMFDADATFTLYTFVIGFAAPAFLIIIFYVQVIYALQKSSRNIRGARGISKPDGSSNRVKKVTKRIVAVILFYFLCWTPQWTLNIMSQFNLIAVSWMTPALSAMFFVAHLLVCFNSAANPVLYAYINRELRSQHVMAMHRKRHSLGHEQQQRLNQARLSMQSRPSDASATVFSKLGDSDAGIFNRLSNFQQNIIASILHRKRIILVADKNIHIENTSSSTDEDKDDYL", "test": "Saturation binding of [3H]CP55,940 to NPR-32 receptors", "design": "species or system C. elegans", "conditions": "saturation binding curve, worm membranes, read-out: apparent Kd", "method": "(§1) Briefly, 75 μg of crude membrane preparations were resuspended in 300 μL of assay buffer (50 mM Tris-HCl, 2.5 mM EDTA, 5 mM MgCl2, 0.5% BSA, pH 7.5) in silanized glass tubes and preincubated with 5 µM JZL-195 for 30 min at 30 °C. […] CP55,940 for 75 min at 30 °C. After the incubation time, membrane suspensions were rapidly filtered through a 0.1% polyethyleneimine presoaked 96-well microplate bonded with GF/B glass fiber filters (UniFilter-96 GF/B, PerkinElmer Life Sciences) under vacuum and washed 12 times with 120 µL of washing buffer (50 mM Tris-HCl, 2.5 mM EDTA, 5 mM MgCl2, 0.5% BSA, pH 7.5). Filters were added with 50 µL of MicroScint20 scintillation liquid, and radioactivity was measured with the 1450 MicroBeta Trilux top counter (PerkinElmer Life Sciences). The results were analyzed with GraphPad Prism 5® and expressed as % of [^3H]CP55,940 binding. IC50 values of each compound were estimated from fitted nonlinear curves and were used to calculate the Ki values by applying the Cheng-Prusoff equation. Specific binding was determined using the npr-32(ok2541) mutant strain in which saturation binding was abolished. Importantly, normalizing against the NPR-19 null mutant strain- npr-19(ok2068), no saturation binding curve could be achieved.\nHowever, no binding or other direct interactions between AEA and these GPCRs were reported. […]"}, "[2]": {"tested_on": "NPR-19", "test": "[3H]CP55,940 binding normalized against NPR-19 null mutant npr-19(ok2068)", "design": "species or system C. elegans", "conditions": "no saturation binding curve (data not shown)", "method": "as §1"}}}
{"smiles": "CCCCCCC(C)(C)c1ccc([C@@H]2C[C@H](O)CC[C@H]2CCCO)c(O)c1", "note": "[CP55,940]", "values": [{"measurement": "Kd", "setting": "[1]", "result": "2.5 ± 1.8", "unit": "nM"}, {"measurement": "binding to NPR-19", "setting": "[2]", "result": "did not bind"}]}
